Experimental data taken from patent US7504420B2, “Compounds which inhibit beta-secretase activity and methods of use” (CoMentis, Inc., priority 2005, dated 2009).

Tests used:
memapsin 2 = memapsin 2 (Homo sapiens, UniProt P56817); test: Inhibition of memapsin 2 catalytic activity (Ki); assay type: biochemical; conditions: memapsin 2, pH 4, 37° C.; read-out: M2K
Procedure, shortened: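 Run at 37 °C and pH 4: compound and enzyme pre-incubated 20 min before FS-2 fluorogenic substrate started hydrolysis,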

cathepsin D = cathepsin D (Homo sapiens, UniProt P07339); test: Inhibition of cathepsin D catalytic activity (Ki); assay type: biochemical; conditions: pH 4.0, 37° C., read-out: CDK
cathepsin D, sequence (P07339 65-412, species assumed): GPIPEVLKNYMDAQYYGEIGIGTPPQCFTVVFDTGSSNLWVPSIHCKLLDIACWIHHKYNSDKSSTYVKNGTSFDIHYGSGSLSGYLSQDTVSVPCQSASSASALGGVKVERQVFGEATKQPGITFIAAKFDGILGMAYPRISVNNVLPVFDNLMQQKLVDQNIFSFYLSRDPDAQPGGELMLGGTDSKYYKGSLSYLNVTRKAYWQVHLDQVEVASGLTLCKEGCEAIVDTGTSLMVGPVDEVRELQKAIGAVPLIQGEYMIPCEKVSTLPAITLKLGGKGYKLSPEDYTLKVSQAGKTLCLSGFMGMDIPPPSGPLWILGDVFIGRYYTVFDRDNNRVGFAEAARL

memapsin 1 = molecular target: T1, memapsin 1 (Homo sapiens, UniProt Q9Y5Z0); test: Inhibition of memapsin 1 catalytic activity (Ki); assay type: biochemical; conditions: memapsin 1, pH 4.0, 37° C.; read-out: M1K
T1 sequence (Q9Y5Z0 63-518): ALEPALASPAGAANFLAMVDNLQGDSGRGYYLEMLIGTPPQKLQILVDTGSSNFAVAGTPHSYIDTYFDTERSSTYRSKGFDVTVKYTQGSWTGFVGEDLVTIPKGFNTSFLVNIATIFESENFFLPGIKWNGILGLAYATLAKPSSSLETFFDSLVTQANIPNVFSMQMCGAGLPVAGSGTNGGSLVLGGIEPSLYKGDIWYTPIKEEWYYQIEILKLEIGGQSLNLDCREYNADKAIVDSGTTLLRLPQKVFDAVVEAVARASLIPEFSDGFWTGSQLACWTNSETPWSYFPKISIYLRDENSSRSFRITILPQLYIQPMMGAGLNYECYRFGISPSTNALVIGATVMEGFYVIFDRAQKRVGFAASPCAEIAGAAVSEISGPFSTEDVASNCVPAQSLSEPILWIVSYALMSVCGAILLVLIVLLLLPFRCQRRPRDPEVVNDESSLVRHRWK

[1] = system: Aβ production in Chinese hamster ovary cells that over-express human APP695 with the London and Swedish mutations; test: Cellular Aβ IC50 determination (Aβ40 sandwich ELISA); conditions: Cricetulus griseus, CHO, 24 h, read-out: Cell, Aβ40, CHO cells over-expressing human APP695 (London and Swedish mutations), 24 h

memapsin 2, sequence (P56817 46-501): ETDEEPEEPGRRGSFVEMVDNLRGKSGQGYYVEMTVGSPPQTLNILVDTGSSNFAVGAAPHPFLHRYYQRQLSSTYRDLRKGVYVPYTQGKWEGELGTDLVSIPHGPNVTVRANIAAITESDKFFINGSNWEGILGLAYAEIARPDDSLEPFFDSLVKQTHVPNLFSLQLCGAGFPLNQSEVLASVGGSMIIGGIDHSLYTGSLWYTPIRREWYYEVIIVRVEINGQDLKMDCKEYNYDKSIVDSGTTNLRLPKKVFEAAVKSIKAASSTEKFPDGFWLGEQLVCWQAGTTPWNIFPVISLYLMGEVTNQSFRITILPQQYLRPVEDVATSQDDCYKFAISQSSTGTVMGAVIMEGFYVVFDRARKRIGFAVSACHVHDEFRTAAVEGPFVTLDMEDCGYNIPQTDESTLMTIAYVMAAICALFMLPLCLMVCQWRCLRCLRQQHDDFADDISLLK

| Structure (SMILES) | Ki (memapsin 2) | Ki (cathepsin D) | Ki (memapsin 1) | IC50 [1] |
| --- | --- | --- | --- | --- |
| CC(NC(=O)c1cc(C(=O)NC(Cc2ccccc2)C(O)CNCc2ccccc2)cc(N(C)S(C)(=O)=O)c1)c1ccccc1 (stereo not shown) [N1-(4-(benzylamino)-3-hydroxy-1-phenylbutan-2-yl)-5-(N-methylmethylsulfonamido)-N3-(1-phenylethyl)isophthalamide] | < 300 nM | < 300 nM | < 300 nM | < 1000 nM |
| COc1cccc(CNCC(O)C(Cc2ccccc2)NC(=O)c2cccc(C(=O)NC(C)c3cccnc3)c2)c1 (stereo not shown) [N1-(3-hydroxy-4-(3-methoxybenzylamino)-1-phenylbutan-2-yl)-N3-(1-(pyridin-3-yl)ethyl)isophthalamide] | > 501 nM | > 501 nM | > 501 nM | > 5000 nM |
| Cc1csc(CNCC(O)C(Cc2ccccc2)NC(=O)c2cc(C(=O)NC(C)c3ccccc3)cc(N(C)S(C)(=O)=O)c2)n1 (stereo not shown) [N1-(3-hydroxy-4-((4-methylthiazol-2-yl)methylamino)-1-phenylbutan-2-yl)-5-(N-methylmethylsulfonamido)-N3-(1-phenylethyl)isophthalamide] | < 300 nM | 301 to 500 nM | > 501 nM | < 1000 nM |
| CC(NCC(O)C(Cc1ccccc1)NC(=O)c1cc(C(=O)NC(C)c2ccccc2)cc(N(C)S(C)(=O)=O)c1)c1ccccc1 (stereo not shown) [N1-(3-hydroxy-1-phenyl-4-(1-phenylethylamino)butan-2-yl)-5-(N-methylmethylsulfonamido)-N3-(1-phenylethyl)isophthalamide] | < 300 nM | < 300 nM | 301 to 500 nM | < 1000 nM |
| CC(NC(=O)c1cc(C(=O)NC(Cc2ccccc2)C(O)CNCc2cccc(F)c2)cc(N(C)S(C)(=O)=O)c1)c1ccccc1 (stereo not shown) [N1-(4-(3-fluorobenzylamino)-3-hydroxy-1-phenylbutan-2-yl)-5-(N-methylmethylsulfonamido)-N3-(1-phenylethyl)isophthalamide] | < 300 nM | 301 to 500 nM | > 501 nM | < 1000 nM |
| CC(NCC(O)C(Cc1ccccc1)NC(=O)c1cc(C(=O)NC(C)c2ccccc2)cc(N(C)S(C)(=O)=O)c1)c1ccc(F)cc1 (stereo not shown) [N1-(4-(1-(4-fluorophenyl)ethylamino)-3-hydroxy-1-phenylbutan-2-yl)-5-(N-methylmethylsulfonamido)-N3-(1-phenylethyl)isophthalamide] | < 300 nM | < 300 nM | < 300 nM | < 1000 nM |
| CC(NC(=O)c1cc(C(=O)NC(Cc2ccccc2)C(O)CNN(C)c2ccccc2)cc(N(C)S(C)(=O)=O)c1)c1ccccc1 (stereo not shown) [N1-(3-hydroxy-4-(2-methyl-2-phenylhydrazinyl)-1-phenylbutan-2-yl)-5-(N-methylmethylsulfonamido)-N3-(1-phenylethyl)isophthalamide] | 301 to 500 nM | > 501 nM | > 501 nM | > 5000 nM |
| COc1cccc(CNCC(O)C(Cc2ccccc2)NC(=O)c2cc(C(=O)NC(C)c3cccnc3)cc(N(C)S(C)(=O)=O)c2)c1 (stereo not shown) [N1-(3-hydroxy-4-(3-methoxybenzylamino)-1-phenylbutan-2-yl)-5-(N-methylmethylsulfonamido)-N3-(1-(pyridin-3-yl)ethyl)isophthalamide] | < 300 nM | > 501 nM | > 501 nM | < 1000 nM |
| COc1cccc(CNCC(O)C(Cc2ccccc2)NC(=O)c2cc(C(=O)NN(C)c3ccccc3)cc(N(C)S(C)(=O)=O)c2)c1 (stereo not shown) [N-(3-hydroxy-4-(3-methoxybenzylamino)-1-phenylbutan-2-yl)-3-(2-methyl-2-phenylhydrazinecarbonyl)-5-(N-methylmethylsulfonamido)benzamide] | < 300 nM | < 300 nM | > 501 nM | < 1000 nM |
| COc1cccc(CNCC(O)C(Cc2ccccc2)NC(=O)c2cc(C(=O)NCc3cccc(OC)c3)cc(N(C)S(C)(=O)=O)c2)c1 (stereo not shown) [N1-(3-hydroxy-4-(3-methoxybenzylamino)-1-phenylbutan-2-yl)-N3-(3-methoxybenzyl)-5-(N-methylmethylsulfonamido)isophthalamide] | < 300 nM | < 300 nM | > 501 nM | 1000 to 5000 nM |
| Cc1cncc(CNCC(O)C(Cc2ccccc2)NC(=O)c2cc(C(=O)NC(C)c3ccccc3)cc(N(C)S(C)(=O)=O)c2)c1 (stereo not shown) [N1-(3-hydroxy-4-((5-methylpyridin-3-yl)methylamino)-1-phenylbutan-2-yl)-5-(N-methylmethylsulfonamido)-N3-(1-phenylethyl)isophthalamide] | < 300 nM | < 300 nM | 301 to 500 nM | < 1000 nM |
| COc1cccc(CNCC(O)C(Cc2ccccc2)NC(=O)c2cccc(C(=O)N(C)Cc3nc(C)cs3)c2)c1 (stereo not shown) [N1-(3-hydroxy-4-(3-methoxybenzylamino)-1-phenylbutan-2-yl)-N3-methyl-N3-((4-methylthiazol-2-yl)methyl)isophthalamide] | < 300 nM | < 300 nM | > 501 nM | < 1000 nM |
| Cc1cccc(CNCC(O)C(Cc2ccccc2)NC(=O)c2cc(C(=O)NC(C)c3ccccc3)cc(N(C)S(C)(=O)=O)c2)n1 (stereo not shown) [N1-(3-hydroxy-4-((6-methylpyridin-2-yl)methylamino)-1-phenylbutan-2-yl)-5-(N-methylmethylsulfonamido)-N3-(1-phenylethyl)isophthalamide] | 301 to 500 nM | > 501 nM | 301 to 500 nM | < 1000 nM |
